# According to the supplement of paper PMC10307832:
# Experiments:
# Assay in all cases: relative viability (nuclei count vs DMSO), 5 days (fraction); higher = more cells survive
# NCI-H1355 = system: NCI-H1355
# Method in brief: (§1)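 Dosing by pin tool came one day after lung cancer cell lines were seeded in 1536-well plates, using either one drug or a fixed anchor-drug dose plus five library-drug doses (not always all listed) in √10 steps. After 5 days, nuclei were counted on 4× images. Relative viability is treated-well nuclei count divided by vehicle-well nuclei count, and values are medians of duplicate plates.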
# HOP-62 = system: HOP-62
# Method in brief: as §1
# 201T = system: 201T
# Method in brief: as §1
# LCLC-97TM1 = system: LCLC-97TM1
# Method in brief: as §1
# NCI-H2405 = system: NCI-H2405
# Method in brief: as §1
# NCI-H1437 = system: NCI-H1437
# Method in brief: as §1
# NCI-H1650 = system: NCI-H1650
# Method in brief: as §1
# RERF-LC-KJ = system: RERF-LC-KJ
# Method in brief: as §1
# SK-LU-1 = system: SK-LU-1
# Method in brief: as §1
# HCC-44 = system: HCC-44
# Method in brief: as §1
# NCI-H2228 = system: NCI-H2228
# Method in brief: as §1
# NCI-H3122 = system: NCI-H3122
# Method in brief: as §1
# NCI-H727 = system: NCI-H727
# Method in brief: as §1
# CAL-12T = system: CAL-12T
# Method in brief: as §1
# NCI-H647 = system: NCI-H647
# Method in brief: as §1
# HCC-827 = system: HCC-827
# Method in brief: as §1
# BEN = system: BEN
# Method in brief: as §1
# LXF-289 = system: LXF-289
# Method in brief: as §1
# NCI-H322M = system: NCI-H322M
# Method in brief: as §1
# NCI-H2023 = system: NCI-H2023
# Method in brief: as §1
# NCI-H2087 = system: NCI-H2087
# Method in brief: as §1
# LCLC-103H = system: LCLC-103H
# Method in brief: as §1
structure (smiles),measurement,setting,value
COc1cc(N2CCC(C(N)=O)CC2)ccc1Nc1nc(N)c(Cl)c(Nc2ccccc2S(=O)(=O)C(C)C)n1 [HG-5-88-01] + C[C@@H](Oc1cc(-c2cnn(C3CCNCC3)c2)cnc1N)c1c(Cl)ccc(F)c1Cl [Crizotinib] (partner 1 µM),relative viability,NCI-H1355; first compound 0.04 µM,1.19
same,relative viability,NCI-H1355; first compound 0.1265 µM,1.05
same,relative viability,NCI-H1355; first compound 0.4 µM,1.02
same,relative viability,NCI-H1355; first compound 1.265 µM,0.983
same,relative viability,NCI-H1355; first compound 4 µM,0.972
same,relative viability,HOP-62; first compound 0.04 µM,0.894
same,relative viability,HOP-62; first compound 0.1265 µM,1.12
same,relative viability,HOP-62; first compound 0.4 µM,0.83
same,relative viability,HOP-62; first compound 1.265 µM,0.925
same,relative viability,HOP-62; first compound 4 µM,0.96
same,relative viability,201T; first compound 0.04 µM,1
same,relative viability,201T; first compound 0.1265 µM,0.846
same,relative viability,201T; first compound 0.4 µM,1.03
same,relative viability,201T; first compound 1.265 µM,0.986
same,relative viability,201T; first compound 4 µM,1.11
same,relative viability,LCLC-97TM1; first compound 0.04 µM,0.461
same,relative viability,LCLC-97TM1; first compound 0.1265 µM,0.379
same,relative viability,LCLC-97TM1; first compound 0.4 µM,0.359
same,relative viability,LCLC-97TM1; first compound 1.265 µM,0.23
same,relative viability,LCLC-97TM1; first compound 4 µM,0.239
same,relative viability,NCI-H2405; first compound 0.04 µM,0.841
same,relative viability,NCI-H2405; first compound 0.1265 µM,0.821
same,relative viability,NCI-H2405; first compound 0.4 µM,0.796
same,relative viability,NCI-H2405; first compound 1.265 µM,0.599
same,relative viability,NCI-H2405; first compound 4 µM,0.901
same,relative viability,NCI-H1437; first compound 0.04 µM,0.896
same,relative viability,NCI-H1437; first compound 0.1265 µM,0.927
same,relative viability,NCI-H1437; first compound 0.4 µM,0.899
same,relative viability,NCI-H1437; first compound 1.265 µM,0.822
same,relative viability,NCI-H1437; first compound 4 µM,1.03
same,relative viability,NCI-H1650; first compound 0.04 µM,1.04
same,relative viability,NCI-H1650; first compound 0.1265 µM,1.01
same,relative viability,NCI-H1650; first compound 0.4 µM,0.948
same,relative viability,NCI-H1650; first compound 1.265 µM,0.817
same,relative viability,NCI-H1650; first compound 4 µM,0.373
same,relative viability,RERF-LC-KJ; first compound 0.04 µM,0.816
same,relative viability,RERF-LC-KJ; first compound 0.1265 µM,0.816
same,relative viability,RERF-LC-KJ; first compound 0.4 µM,0.81
same,relative viability,RERF-LC-KJ; first compound 1.265 µM,0.782
same,relative viability,RERF-LC-KJ; first compound 4 µM,0.535
same,relative viability,SK-LU-1; first compound 0.04 µM,1.04
same,relative viability,SK-LU-1; first compound 0.1265 µM,0.793
same,relative viability,SK-LU-1; first compound 0.4 µM,0.867
same,relative viability,SK-LU-1; first compound 1.265 µM,0.845
same,relative viability,SK-LU-1; first compound 4 µM,0.595
same,relative viability,HCC-44; first compound 0.04 µM,0.777
same,relative viability,HCC-44; first compound 0.1265 µM,0.791
same,relative viability,HCC-44; first compound 0.4 µM,0.797
same,relative viability,HCC-44; first compound 1.265 µM,0.611
same,relative viability,HCC-44; first compound 4 µM,0.489
same,relative viability,NCI-H2228; first compound 0.04 µM,0.677
same,relative viability,NCI-H2228; first compound 0.1265 µM,0.464
same,relative viability,NCI-H2228; first compound 0.4 µM,0.454
same,relative viability,NCI-H2228; first compound 1.265 µM,0.427
same,relative viability,NCI-H2228; first compound 4 µM,0.307
same,relative viability,NCI-H3122; first compound 0.04 µM,0.271
same,relative viability,NCI-H3122; first compound 0.1265 µM,0.264
same,relative viability,NCI-H3122; first compound 0.4 µM,0.292
same,relative viability,NCI-H3122; first compound 1.265 µM,0.233
same,relative viability,NCI-H3122; first compound 4 µM,0.173
same,relative viability,NCI-H727; first compound 0.04 µM,0.931
same,relative viability,NCI-H727; first compound 0.1265 µM,0.937
same,relative viability,NCI-H727; first compound 0.4 µM,0.827
same,relative viability,NCI-H727; first compound 1.265 µM,0.492
same,relative viability,NCI-H727; first compound 4 µM,0.585
same,relative viability,CAL-12T; first compound 0.04 µM,0.589
same,relative viability,CAL-12T; first compound 0.1265 µM,0.671
same,relative viability,CAL-12T; first compound 0.4 µM,0.421
same,relative viability,CAL-12T; first compound 1.265 µM,0.432
same,relative viability,CAL-12T; first compound 4 µM,0.183
same,relative viability,NCI-H647; first compound 0.04 µM,1.16
same,relative viability,NCI-H647; first compound 0.1265 µM,0.992
same,relative viability,NCI-H647; first compound 1.265 µM,0.955
same,relative viability,NCI-H647; first compound 4 µM,0.393
same,relative viability,HCC-827; first compound 0.04 µM,0.946
same,relative viability,HCC-827; first compound 0.1265 µM,0.917
same,relative viability,HCC-827; first compound 0.4 µM,0.94
same,relative viability,HCC-827; first compound 1.265 µM,0.831
same,relative viability,HCC-827; first compound 4 µM,0.392
same,relative viability,BEN; first compound 0.04 µM,0.975
same,relative viability,BEN; first compound 0.1265 µM,0.915
same,relative viability,BEN; first compound 0.4 µM,0.895
same,relative viability,BEN; first compound 1.265 µM,0.625
same,relative viability,BEN; first compound 4 µM,0.962
same,relative viability,LXF-289; first compound 0.04 µM,0.804
same,relative viability,LXF-289; first compound 0.1265 µM,0.797
same,relative viability,LXF-289; first compound 0.4 µM,0.851
same,relative viability,LXF-289; first compound 1.265 µM,0.831
same,relative viability,LXF-289; first compound 4 µM,0.827
same,relative viability,NCI-H322M; first compound 0.04 µM,0.978
same,relative viability,NCI-H322M; first compound 0.1265 µM,0.855
same,relative viability,NCI-H322M; first compound 0.4 µM,0.882
same,relative viability,NCI-H322M; first compound 1.265 µM,0.687
same,relative viability,NCI-H322M; first compound 4 µM,0.818
same,relative viability,NCI-H2023; first compound 0.04 µM,0.729
same,relative viability,NCI-H2023; first compound 0.1265 µM,0.763
same,relative viability,NCI-H2023; first compound 0.4 µM,0.543
same,relative viability,NCI-H2023; first compound 1.265 µM,0.405
same,relative viability,NCI-H2023; first compound 4 µM,0.118
same,relative viability,NCI-H2087; first compound 0.04 µM,0.758
same,relative viability,NCI-H2087; first compound 0.1265 µM,0.868
same,relative viability,NCI-H2087; first compound 0.4 µM,0.839
same,relative viability,NCI-H2087; first compound 1.265 µM,0.825
same,relative viability,NCI-H2087; first compound 4 µM,0.527
same,relative viability,LCLC-103H; first compound 0.04 µM,0.987
same,relative viability,LCLC-103H; first compound 0.1265 µM,0.955
same,relative viability,LCLC-103H; first compound 0.4 µM,0.95
same,relative viability,LCLC-103H; first compound 1.265 µM,0.923
same,relative viability,LCLC-103H; first compound 4 µM,0.985
